Assay results from PubChem BioAssay AID212 (DTP/NCI, 2004).
“And” between values parts separate entries of the source, which are not always exact repeats. Equal values may be shown once. Inconclusive results are not listed. *1 amine or outer side, *2 acyl side, *3 side chain or, on linkers, in order; H or OH if unused. Where a SMILES comes first, the peptide text is derived from it. Bridges are numbered along the chain shown (N, C = ends). Roman numbers before positions name the chains, in order. [ ]: non-standard residue; d: D form. Actinocin(9to1) = Cc1c2oc3c(C)ccc(C(=O)[*:1])c3nc-2c(C(=O)[*:2])c(N)c1=O; aThr = C[C@H](O)[C@H](N)C(=O)O; NMeV = CN[C@H](C(=O)O)C(C)C; Sar = CNCC(=O)O

Test system: BDF1 mice, colon carcinoma 38 sc, T/C %
Assay: NCI In Vivo Anticancer Drug Screen. Data for tumor model Colon Carcinoma 38 (subcutaneous) in B6D2F1 (BDF1) mice
Conditions: endpoint: median tumor weight (est.), higher = larger tumour
Outline: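 Transplantable tumor in mice; compound-treated vs vehicle-dosed controls. Measured survival or tumor size; value = T ÷ C.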

[1] = dose: 50.0 mg/kg/injection, schedule: Q07DX002 (ip), vehicle: saline with Tween-80
[2] = dose: 50.0 mg/kg/injection, schedule: Q07DX002 (ip), vehicle: saline
[3] = dose: 100.0 mg/kg/injection, schedule: Q07DX002 (ip), vehicle: saline with Tween-80
[4] = dose: 100.0 mg/kg/injection, schedule: Q07DX002 (ip), vehicle: saline
[5] = dose: 200.0 mg/kg/injection, schedule: Q07DX002 (ip), vehicle: saline with Tween-80
[6] = dose: 200.0 mg/kg/injection, schedule: Q07DX002 (ip), vehicle: saline
[7] = dose: 400.0 mg/kg/injection, schedule: Q07DX002 (ip), vehicle: saline with Tween-80
[8] = dose: 400.0 mg/kg/injection, schedule: Q07DX002 (ip), vehicle: saline
[9] = dose: 800.0 mg/kg/injection, schedule: Q07DX002 (ip), vehicle: saline
[10] = dose: 12.5 mg/kg/injection, schedule: Q07DX002 (ip), vehicle: saline with Tween-80
[11] = dose: 25.0 mg/kg/injection, schedule: Q07DX002 (ip), vehicle: saline with Tween-80
[12] = dose: 12.5 mg/kg/injection, schedule: Q07DX002 (ip), vehicle: saline
[13] = dose: 25.0 mg/kg/injection, schedule: Q07DX002 (ip), vehicle: saline

## CC(=O)Nc1ccc(/C=N/NC(N)=S)cc1
dose: 100.0 mg/kg/injection, schedule: Q07DX002 (ip), vehicle: Klucel (hydroxypropylcellulose) (HPC)
  T/C: 117 % of control and 98 % of control
dose: 400.0 mg/kg/injection, schedule: Q07DX002 (ip), vehicle: Klucel (hydroxypropylcellulose) (HPC)
  T/C: 98 % of control
dose: 450.0 mg/kg/injection, schedule: Q07DX002 (ip), vehicle: saline with Tween-80
  T/C: 86 % of control
dose: 900.0 mg/kg/injection, schedule: Q07DX002 (ip), vehicle: saline with Tween-80
  T/C: 57 % of control
dose: 1800.0 mg/kg/injection, schedule: Q07DX002 (ip), vehicle: saline with Tween-80
  T/C: 119 % of control

## O=c1[nH]c(=O)n(C2CC(O)C(CO)O2)cc1I (configuration not stated)
[1]
  T/C: 79 % of control
[2]
  T/C: 44 % of control
[3]
  T/C: 69 % of control
[4]
  T/C: 50 % of control
[5]
  T/C: 102 % of control
[6]
  T/C: 44 % of control
dose: 200.0 mg/kg/injection, schedule: Q07DX002 (ip), vehicle: suspension in saline
  T/C: 57 % of control
[7]
  T/C: 105 % of control
[8]
  T/C: 44 % of control
dose: 400.0 mg/kg/injection, schedule: Q07DX002 (ip), vehicle: suspension in saline
  T/C: 102 % of control
dose: 800.0 mg/kg/injection, schedule: Q07DX002 (ip), vehicle: saline with Tween-80
  T/C: 75 % of control
[9]
  T/C: 18 % of control
dose: 800.0 mg/kg/injection, schedule: Q07DX002 (ip), vehicle: suspension in saline
  T/C: 59 % of control
dose: 1600.0 mg/kg/injection, schedule: Q07DX002 (ip), vehicle: saline with Tween-80
  T/C: 48 % of control
dose: 1600.0 mg/kg/injection, schedule: Q07DX002 (ip), vehicle: saline
  T/C: 1 % of control

## Cc1c2oc3c(C)ccc(C(=O)N[C@@H]4C(=O)N[C@H](C(C)C)C(=O)N5CCC[C@H]5C(=O)N(C)CC(=O)N(C)[C@@H](C(C)C)C(=O)O[C@H]4C)c3nc-2c(C(=O)N[C@@H]2C(=O)N[C@H](C(C)C)C(=O)N3CCC[C@H]3C(=O)N(C)CC(=O)N(C)[C@@H](C(C)C)C(=O)O[C@H]2C)c(N)c1=O (I: [aThr][dV]P[Sar][NMeV] / II: [aThr][dV]P[Sar][NMeV]; ester I:1-I:C, II:1-II:C; linker I:N-II:N via Actinocin(9to1))
dose: 100.0 micrograms/kg/injection, schedule: Q07DX002 (ip), vehicle: saline + alcohol
  T/C: 104 % of control
dose: 200.0 micrograms/kg/injection, schedule: Q07DX002 (ip), vehicle: saline + alcohol
  T/C: 77 % of control
dose: 400.0 micrograms/kg/injection, schedule: Q07DX002 (ip), vehicle: saline + alcohol
  T/C: 19 % of control

## O=C1c2cccc3cc([N+](=O)[O-])cc(c23)C(=O)N1CCN1CCCC1
dose: 3.13 mg/kg/injection, schedule: Q07DX002 (ip), vehicle: saline with Tween-80
  T/C: 107 % of control
dose: 6.25 mg/kg/injection, schedule: Q07DX002 (ip), vehicle: saline with Tween-80
  T/C: 71 % of control
[10]
  T/C: 84 % of control
[11]
  T/C: 67 % of control

## OC(CCl)CN1CC[N+]2(CC1)CC[N+]1(CCN(CC(O)CCl)CC1)CC2 (configuration not stated)
[12]
  T/C: 73 % of control
dose: 12.5 mg/kg/injection, schedule: Q07DX003 (ip), vehicle: saline
  T/C: 90 % of control
[13]
  T/C: 124 % of control
dose: 25.0 mg/kg/injection, schedule: Q07DX003 (ip), vehicle: saline
  T/C: 91 % of control
[2]
  T/C: 90 % of control and 99 % of control
dose: 50.0 mg/kg/injection, schedule: Q07DX003 (ip), vehicle: saline
  T/C: 76 % of control
[4]
  T/C: 60 % of control
dose: 100.0 mg/kg/injection, schedule: Q07DX003 (ip), vehicle: saline
  T/C: 57 % of control
dose: 200.0 mg/kg/injection, schedule: Q07DX003 (ip), vehicle: saline
  T/C: 54 % of control
dose: 400.0 mg/kg/injection, schedule: Q07DX003 (ip), vehicle: saline
  T/C: 44 % of control
[9]
  T/C: 30 % of control

## CC[As](=O)(O)CC
[12]
  T/C: 101 % of control
[13]
  T/C: 110 % of control
[4]
  T/C: 81 % of control
[6]
  T/C: 97 % of control
[8]
  T/C: 110 % of control

## O=c1ncccn1[C@@H]1O[C@H](CO)[C@H](O)C1O (some centres not stated)
[2]
  T/C: 61 % of control and 82 % of control
[4]
  T/C: 65 % of control and 75 % of control
[6]
  T/C: 66 % of control and 84 % of control
[8]
  T/C: 62 % of control and 66 % of control
[9]
  T/C: 67 % of control and 74 % of control

## COc1ccc(-c2cc(=O)c3cccc(CC(=O)O)c3o2)cc1
[3]
  T/C: 84 % of control
[5]
  T/C: 113 % of control

## N#CC(=C1C=CC(=NO)C=C1)c1ccc(Cl)cc1
[10]
  T/C: 72 % of control
[11]
  T/C: 100 % of control
[3]
  T/C: 103 % of control
[7]
  T/C: 46 % of control

## CCOC(=O)C1C2OC(=O)C(C(=O)C2CN(CCCl)CCCl)C1C1CC=C(CC2=CCC(C3C4C(=O)OC(C(CN(CCCl)CCCl)C4=O)C3C(=O)OCC)CC2)CC1 (configuration not stated)
dose: 12.5 mg/kg/injection, schedule: Q07DX003 (ip), vehicle: Klucel (hydroxypropylcellulose) (HPC)
  T/C: 95 % of control
dose: 25.0 mg/kg/injection, schedule: Q07DX003 (ip), vehicle: Klucel (hydroxypropylcellulose) (HPC)
  T/C: 117 % of control
dose: 50.0 mg/kg/injection, schedule: Q07DX003 (ip), vehicle: Klucel (hydroxypropylcellulose) (HPC)
  T/C: 116 % of control
dose: 100.0 mg/kg/injection, schedule: Q07DX003 (ip), vehicle: Klucel (hydroxypropylcellulose) (HPC)
  T/C: 110 % of control
dose: 200.0 mg/kg/injection, schedule: Q07DX003 (ip), vehicle: Klucel (hydroxypropylcellulose) (HPC)
  T/C: 67 % of control

## COC(=O)C(N)CCCCNc1ccc2c(cc1=O)C(NC(C)=O)CCc1cc(OC)c(OC)c(OC)c1-2 (configuration not stated)
dose: 287.0 mg/kg/injection, schedule: Q07DX002 (ip), vehicle: saline
  T/C: 78 % of control

## NS(=O)(=O)OCCCCCCCOS(N)(=O)=O
[11]
  T/C: 124 % of control
[5]
  T/C: 9 % of control and 16 % of control

## CSc1ncnc2c1ncn2C1OC(CO)C(O)C1O (configuration not stated)
dose: 6.25 mg/kg/injection, schedule: Q07DX002 (ip), vehicle: saline + alcohol
  T/C: 91 % of control
dose: 12.5 mg/kg/injection, schedule: Q07DX002 (ip), vehicle: saline + alcohol
  T/C: 83 % of control
dose: 25.0 mg/kg/injection, schedule: Q07DX002 (ip), vehicle: saline + alcohol
  T/C: 150 % of control
dose: 100.0 mg/kg/injection, schedule: Q07DX002 (ip), vehicle: saline + alcohol
  T/C: 25 % of control

## COc1cc(Cl)ccc1C
[10]
  T/C: 99 % of control
[11]
  T/C: 71 % of control
[1]
  T/C: 68 % of control
[3]
  T/C: 82 % of control
[5]
  T/C: 89 % of control
[7]
  T/C: 89 % of control

## COc1cccc2c1C(=O)c1c(O)c3c(c(O)c1C2=O)C[C@H](O)C[C@@H]3OC1CC(N)C(O)C(C)O1 (some centres not stated)
dose: 3.38 mg/kg/injection, schedule: Q07DX002 (ip), vehicle: water
  T/C: 97 % of control
dose: 13.5 mg/kg/injection, schedule: Q07DX002 (ip), vehicle: water
  T/C: 108 % of control
dose: 15.0 mg/kg/injection, schedule: Q07DX002 (ip), vehicle: saline
  T/C: 87 % of control
dose: 24.0 mg/kg/injection, schedule: Q07DX002 (ip), vehicle: saline
  T/C: 101 % of control
dose: 27.0 mg/kg/injection, schedule: Q07DX002 (ip), vehicle: water
  T/C: 55 % of control
dose: 38.0 mg/kg/injection, schedule: Q07DX002 (ip), vehicle: saline
  T/C: 61 % of control

## NCC1CCC(C(=O)O)CC1 (configuration not stated)
[11]
  T/C: 83 % of control
[1]
  T/C: 104 % of control
[3]
  T/C: 99 % of control
[5]
  T/C: 102 % of control
